From patent publication US12509460B2 (Skyhawk Therapeutics, Inc., priority 2019, dated 2025)
Where two headings read alike, the source gives them in different places.

Key:
[1] = test system: MDR1-MDCK cell monolayers; assay: Blood-brain-barrier (BBB) penetration potential via MDCK-MDR1 permeability assay
MDR1 (P-gp) = assay: as above; settings: dog; for Papp A→B at 120 min, 5 μM: MDCK-MDR1, pH 7.4, MDCK-MDR1: Papp A-B; for Papp B→A at 120 min, 5 μM: MDCK-MDR1, pH 7.4, MDCK-MDR1: Papp B-A
MDR1 = assay: as above; settings: dog, MDCK-MDR1, pH 7.4, MDCK-MDR1: Efflux
[2] = test system: SMN FL and SMN Δ7 in spinal muscular atrophy (SMA) patient fibroblasts (GM03813, Coriell); assay: Quantitative splicing assay (SMN), qPCR; format: cell-based, human; settings: Homo sapiens, Fibroblast, 24 h, 24 h, read-out: SMN2 Splicing FL EC50
Description: Spinal muscular atrophy (SMA) patient fibroblasts (GM03813, Coriell) are plated in 96-well plates at 50,000 cells/well. […] Treated cells are lysed and cDNA synthesized using the Fast Advanced Cells-to-Ct kit (Thermofisher A35378) according to the manufacturer's instructions. 2 μL of each cDNA are used in qPCR reactions. […] Reactions are run in a Quant Studio 6 qPCR instrument with default settings.

[3] = test system: mHTT protein in GM04724 (CAG 70/20) Huntington's disease patient lymphoblast cells; assay: mHTT protein assay, 2B7-MW1 assay via Mesoscale Discovery (MSD); format: cell-based, human
Procedure, shortened: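 Signal from the 2B7-MW1 antibody pair on MSD, rising with polyQ length and smaller HTT fragments, measured mHTT after 48 h compound exposure (0.6 nM–10 μM) in GM04724 cells. A parallel replicate plate gave CellTiter Glo viability.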

[4] = Quantitative splicing assay (HTT), qPCR; format: cell-based, human; settings: Homo sapiens, GM04724, 24 h, GM04724 lymphoblasts, read-out: HTT Splicing: E49-50 EC50
Procedure, shortened: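 TaqMan qPCR on cell-lysate cDNA quantifies cryptic-exon inclusion from HTT intron 49. Lymphoblasts plated at 50,000 cells/well had received compound for 24 h, 0.15 nM-2.5 uM range, 0.1% DMSO.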

[5] = test system: SMN protein in spinal muscular atrophy (SMA) patient fibroblasts (GM03813, Coriell); assay: SMN protein assay, Mesoscale Discovery (MSD); format: cell-based, human; settings: read-out: SMN2 protein EC50
Procedure, shortened: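 Absolute SMN levels were quantified by MSD against an SMN protein standard curve (1 μg/ml to 19.5 pg/ml) run on each plate. Samples were lysates of GM03813 patient fibroblasts (7000 cells/well) treated 48 hours with compound doses from 2.5 μM down to 0.6 nM.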

[6] = SMA patient fibroblasts GM03813, 24 h, qPCR
[7] = GM04724 Huntington's disease patient lymphoblasts
[8] = SMA patient fibroblasts GM03813, 48 hours, MSD

| SMILES | MDCK-MDR1: % Recov A-B ([1]; A-B) | MDCK-MDR1: % Recov B-A ([1]; B-A) | Papp A→B at 120 min, 5 μM (MDR1 (P-gp); A-B) | Papp B→A at 120 min, 5 μM (MDR1 (P-gp); B-A) | efflux ratio at 120 min, 5 μM (MDR1) | EC50 ([2]; SMA patient fibroblasts (GM03813)) | EC50 ([3]; GM04724 (CAG 70/20) Huntington's disease patient lymphoblasts) | EC50 [4] | EC50 ([5]; SMA patient fibroblasts (GM03813), 48 hours) | MDCK-MDR1: % Recov A-B ([1]; A-B direction) | MDCK-MDR1: % Recov B-A ([1]; B-A direction) | Papp A→B at 120 min, 5 μM (MDR1 (P-gp); A-B direction) | Papp B→A at 120 min, 5 μM (MDR1 (P-gp); B-A direction) | efflux ratio at 120 min, 5 μM (MDR1; efflux ratio) | EC50 [2, 6] | EC50 [3, 7] | EC50 ([4]; qPCR) | EC50 [5, 8] |
| --- | --- | --- | --- | --- | --- | --- | --- | --- | --- | --- | --- | --- | --- | --- | --- | --- | --- | --- |
| Cc1nc2cc(-c3ccc(N(C)[C@H]4C[C@@H]5CC[C@@H](N5)[C@H]4F)nn3)c(O)cc2c(=O)n1C [Compound 114B, 7-(6-(((1R,2R,3S,5S)-2-fluoro-8-azabicyclo[3.2.1]octan-3-yl)(methyl)amino)pyridazin-3-yl)-6-hydroxy-2,3-dimethylquinazolin-4(3H)-one] | 88% | 94% | 2.9 nm/s | 430 nm/s | 150 | 0.01 to 15 nM | 0.01 to 15 nM | 0.01 to 15 nM | 0.01 to 15 nM |  |  |  |  |  |  |  |  |  |
| CNC(=O)c1cc(O)c(-c2ccc(N(C)[C@H]3C[C@@H]4CC[C@@H](N4)[C@H]3F)nn2)cc1F [Compound 47B, 2-fluoro-4-(6-(((1R,2R,3S,5S)-2-fluoro-8-azabicyclo[3.2.1]octan-3-yl)(methyl)amino)pyridazin-3-yl)-5-hydroxy-N-methylbenzamide] |  |  |  |  |  |  |  |  |  | 101% | 120% | 12.6 nm/s | 498 nm/s | 40 | 51 to 100 nM | 51 to 100 nM | 51 to 100 nM | 16 to 50 nM |
| CN(c1ccc(-c2cc3occc(=O)c3cc2O)nn1)[C@@H]1C[C@H]2CC[C@H](N2)[C@@H]1F [Compound 43A, 7-(6-(((1S,2S,3R,5R)-2-fluoro-8-azabicyclo[3.2.1]octan-3-yl)(methyl)amino)pyridazin-3-yl)-6-hydroxy-4H-chromen-4-one] |  |  |  |  |  |  |  |  |  | 64% | 58% | 21.4 nm/s | 232 nm/s | 11 | 16 to 50 nM | 16 to 50 nM | 51 to 100 nM | 0.01 to 15 nM |
| CN(c1ccc(-c2cc3c(=O)n(C)ccc3cc2O)nn1)[C@@H]1C[C@H]2CC[C@H](N2)[C@@H]1F [Compound 83A, 7-(6-(((1S,2S,3R,5R)-2-fluoro-8-azabicyclo[3.2.1]octan-3-yl)(methyl)amino)pyridazin-3-yl)-6-hydroxy-2-methylisoquinolin-1(2H)-one] |  |  |  |  |  |  |  |  |  | 89% | 83% | 9.8 nm/s | 435 nm/s | 44 | 0.01 to 15 nM | 0.01 to 15 nM | 0.01 to 15 nM | 0.01 to 15 nM |
| CN(c1ccc(-c2ccc(-n3ccnc3)cc2O)nn1)[C@H]1C[C@@H]2CC[C@@H](N2)[C@H]1F [Compound 4B, 2-(6-(((1R,2R,3S,5S)-2-fluoro-8-azabicyclo[3.2.1]octan-3-yl)(methyl)amino)pyridazin-3-yl)-5-(1H-imidazol-1-yl)phenol] |  |  |  |  |  |  |  |  |  | 87% | 85% | 28.2 nm/s | 497 nm/s | 18 | 0.01 to 15 nM | 0.01 to 15 nM | 0.01 to 15 nM | 0.01 to 15 nM |
| CN(c1ccc(-c2cc3ccncc3cc2O)nn1)[C@@H]1C[C@H]2CC[C@H](N2)[C@@H]1F (single isomer, unassigned) [Compound 87A] |  |  |  |  |  |  |  |  |  | 59% | 79% | 53.3 nm/s | 431 nm/s | 8 | 101 to 500 nM | 51 to 100 nM | 51 to 100 nM | 0.01 to 15 nM |
